The source of these data is ChEMBL document CHEMBL1153270, “Fluoroalkyl alpha side chain containing 3,4-diamino-cyclobutenediones as potent and orally bioavailable CXCR2-CXCR1 dual antagonists” (Bioorg Med Chem Lett, 2009).

Series [1] addresses T1, C-X-C chemokine receptor type 1 (Homo sapiens, UniProt P25024).
T1 sequence (P25024 whole entry): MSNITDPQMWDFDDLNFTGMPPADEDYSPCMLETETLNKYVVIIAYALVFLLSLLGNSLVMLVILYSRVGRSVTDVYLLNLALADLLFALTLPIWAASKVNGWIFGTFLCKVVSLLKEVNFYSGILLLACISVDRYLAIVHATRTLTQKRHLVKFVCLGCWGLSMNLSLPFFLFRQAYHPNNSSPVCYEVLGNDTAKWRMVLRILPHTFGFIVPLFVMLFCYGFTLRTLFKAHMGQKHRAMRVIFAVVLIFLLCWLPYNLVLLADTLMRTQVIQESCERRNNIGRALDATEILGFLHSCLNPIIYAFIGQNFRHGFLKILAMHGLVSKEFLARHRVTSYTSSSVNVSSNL
Nature of the series: Binding affinity to CXCR1.

Series [2] in a line: AUC in po dosed rat. Type of series: ADME, organism-based. The following applies: plasma.
In series [3] the target is T2, C-X-C chemokine receptor type 2 (Homo sapiens, UniProt P25025).
T2 sequence (P25025 whole entry): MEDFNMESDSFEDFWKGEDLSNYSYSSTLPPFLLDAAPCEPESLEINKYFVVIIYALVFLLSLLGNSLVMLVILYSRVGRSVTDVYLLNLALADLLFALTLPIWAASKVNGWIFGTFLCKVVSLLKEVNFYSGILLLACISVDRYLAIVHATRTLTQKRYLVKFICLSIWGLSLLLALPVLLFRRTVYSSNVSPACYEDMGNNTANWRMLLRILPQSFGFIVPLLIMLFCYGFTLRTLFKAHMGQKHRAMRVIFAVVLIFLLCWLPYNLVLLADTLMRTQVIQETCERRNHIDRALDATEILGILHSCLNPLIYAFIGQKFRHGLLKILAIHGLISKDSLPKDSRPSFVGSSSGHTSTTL
Nature of the series: Binding affinity to CXCR2.

As a reminder, the Ki is a dissociation constant, usually derived from enzyme kinetics or from competition with a known ligand. A word on the AUC: it is concentration integrated over time. A high value points to more exposure.

`CC[C@@H](Nc1c(Nc2cccc(C(=O)N(C)C)c2O)c(=O)c1=O)c1ccccc1`: the inhibition constant (Ki) in series [1] stood at 40 nM; in series [3], 4 nM. Further, the AUC in series [2] was found to be 17.4 µM·h.

As for `CN(C)C(=O)c1cccc(Nc2c(N[C@@H](c3ccccc3)C(F)(F)F)c(=O)c2=O)c1O`, the Ki in series [1] was 40 nM; in series [3], 14 nM.

Consider `C[C@H](F)[C@@H](Nc1c(Nc2cccc(C(=O)N(C)C)c2O)c(=O)c1=O)c1ccco1`, for which the inhibitory constant (Ki) in series [1] was 43 nM; in series [3], 7 nM.

For the molecule `CN(C)C(=O)c1cccc(Nc2c(N[C@H](CC(F)(F)F)c3ccco3)c(=O)c2=O)c1O`, the results for the Ki in series [1] and in series [3] were 100 nM and 5 nM, respectively.

`CN(C)C(=O)c1cccc(Nc2c(N[C@H](CCC(F)(F)F)c3ccco3)c(=O)c2=O)c1O` returned a Ki in series [3] of 400 nM.

As to `CN(C)C(=O)c1cccc(Nc2c(N[C@@H](c3ccco3)C(F)(F)F)c(=O)c2=O)c1O`, the Ki in series [1] worked out at 6 nM; in series [3] it was 2 nM.

As to `CN(C)C(=O)c1cccc(Nc2c(N[C@@H](c3ccc(Cl)o3)C(F)(F)F)c(=O)c2=O)c1O`, the Ki in series [1] was 34 nM; in series [3], 7 nM.

Turning to `CN(C)C(=O)c1cccc(Nc2c(N[C@@H](c3cc(Cl)co3)C(F)(F)F)c(=O)c2=O)c1O`, the Ki in series [1] worked out at 20 nM; in series [3], 5 nM.

In turn, `C=CC(F)(F)[C@@H](Nc1c(Nc2cccc(C(=O)N(C)C)c2O)c(=O)c1=O)c1ccc(C)o1` came in with an inhibitory constant (Ki) in series [3] of 9 nM. This counts as single-digit nanomolar.

`Cc1ccc([C@H](Nc2c(Nc3cccc(C(=O)N(C)C)c3O)c(=O)c2=O)C(C)(F)F)o1`: the Ki in series [1] was 6 nM; in series [3], 10 nM. In addition, the AUC in series [2] was 3 µM·h.

In the case of `Cc1ccc([C@H](Nc2c(Nc3cccc(C(=O)N(C)C)c3O)c(=O)c2=O)C(C)(C)F)o1`, the Ki came to 24 nM in series [1] and 8 nM in series [3].

For the molecule `Cc1ccoc1[C@H](Nc1c(Nc2cccc(C(=O)N(C)C)c2O)c(=O)c1=O)C(C)(F)F`, the Ki in series [1] was 30 nM; in series [3], 12 nM.

Regarding `Cc1ccc([C@H](Nc2c(Nc3cccc(C(=O)N(C)C)c3O)c(=O)c2=O)[C@H](C)F)o1`, the inhibition constant (Ki) in series [1] amounted to 16 nM; in series [3], 13 nM. Further, in series [2], the AUC was 3.6 µM·h.

Turning to `Cc1ccc([C@H](Nc2c(Nc3cccc(C(=O)N(C)C)c3O)c(=O)c2=O)C(F)(F)F)o1`, the figures for the Ki in series [1] and in series [3] were 9 nM and 5 nM, respectively. Besides, in series [2], the exposure (AUC) was determined as 19.8 µM·h.

As to `Cc1coc([C@H](Nc2c(Nc3cccc(C(=O)N(C)C)c3O)c(=O)c2=O)[C@H](C)F)c1`, the inhibition constant (Ki) in series [1] turned out to be 5 nM; in series [3], 4 nM. This molecule had an exposure (AUC) in series [2] of 3.6 µM·h.

Consider `CN(C)C(=O)c1cccc(Nc2c(N[C@@H](c3ccc4c(c3)OCO4)C(F)(F)F)c(=O)c2=O)c1O`, for which the figures for the Ki in series [1] and in series [3] were 8 nM and 5 nM, respectively. Moreover, in series [2], the AUC worked out at 9.17 µM·h.

On to `CCC(F)(F)[C@@H](Nc1c(Nc2cccc(C(=O)N(C)C)c2O)c(=O)c1=O)c1ccc(C)o1`, for which the Ki in series [1] amounted to 22 nM; in series [3], 5 nM.

Regarding `Cc1ccc([C@H](Nc2c(Nc3cccc(C(=O)N(C)C)c3O)c(=O)c2=O)C(F)(F)C(F)(F)F)o1`, the Ki in series [1] came out at 10 nM; in series [3], 4 nM.

As for `CC(C)c1coc([C@H](Nc2c(Nc3cccc(C(=O)N(C)C)c3O)c(=O)c2=O)C(C)(F)F)c1`, the figures for the Ki in series [1] and in series [3] were 25 nM and 2 nM, respectively.

On to `CN(C)C(=O)c1cccc(Nc2c(N[C@@H](c3cc(Cl)c(Cl)o3)C(F)(F)F)c(=O)c2=O)c1O`, for which the Ki turned out to be 103 nM in series [1] and 5 nM in series [3].

Regarding `Cc1coc([C@H](Nc2c(Nc3cccc(C(=O)N(C)C)c3O)c(=O)c2=O)C(C)(F)F)c1`, the Ki in series [1] was determined as 6 nM; in series [3] it was 14 nM.

For `CC[C@@H](Nc1c(Nc2cccc(C(=O)N(C)C)c2O)c(=O)c1=O)c1ccc(C)o1` [NAVARIXIN ANHYDROUS], the AUC in series [2] was found to be 49 µM·h.
